Molecular target: T1, SCD5 (Homo sapiens, UniProt Q86SK9)
T1 construct: host or cells: S. cerevisiae ole1Δ strain (W303 pdr1Δ pdr3Δ background), plasmid pRS316 with TDH3 promoter and CYC1 terminator
T1 sequence (Q86SK9 1-330): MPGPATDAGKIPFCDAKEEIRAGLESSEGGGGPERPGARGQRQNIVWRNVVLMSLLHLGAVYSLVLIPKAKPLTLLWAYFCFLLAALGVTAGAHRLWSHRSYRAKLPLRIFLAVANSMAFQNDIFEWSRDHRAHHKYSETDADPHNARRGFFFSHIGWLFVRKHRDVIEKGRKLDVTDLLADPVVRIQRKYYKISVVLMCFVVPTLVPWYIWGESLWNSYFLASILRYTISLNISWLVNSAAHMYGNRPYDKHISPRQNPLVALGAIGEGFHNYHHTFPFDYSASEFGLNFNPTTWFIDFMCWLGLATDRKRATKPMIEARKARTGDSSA
Test: Growth inhibition of humanized yeast strain expressing SCD5 as sole desaturase
Type: cell-based
Conditions: humanized yeast strain expressing SCD5
Protocol: Strain oleΔ (yeast ole1 deletion mutant) was constructed by deleting OLE1 with NAT-MX6 in BY4741, amplifying the deletion cassette from the genomic DNA of the resulting strain with primers flanking the ORF by 1000 bp upstream and downstream, transforming the resulting deletion cassette into W303 pdr1Δ pdr3Δ, and plating transformants on YPD media containing G418 (200 μg/mL) and nourseothricin ([…]) with 0.01% TWEEN®-20 and 0.5 mM oleic and palmitoleic acids.
The coding sequence of yeast OLE1 was also cloned into this plasmid). These clones were then transformed into the ole1Δ strain and plated on CSM-Ura media (CSM lacking uracil) with 2% glucose (w/v) and independent colonies were isolated and amplified.
All compound profiling experiments were performed using the same basic protocol. Different genetic backgrounds (e.g., gene deletions) or conditions (e.g., addition of oleic and palmitoleic acid) were replaced as indicated below.
Yeast were cultured using standard techniques in complete synthetic media (CSM) and yeast nitrogen base supplemented with 2% (w/v) carbon source (glucose, raffinose, or galactose) to regulate the expression of the toxic disease protein. An initial starter culture was inoculated in 3 mL CSM-Glucose media and incubated overnight in a 30° C. shaker incubator (225 rpm). Saturated morning cultures were then diluted 1:20 in fresh CSM-Raffinose media and grown for 6 h to an OD600 (optical density) of ˜0.4-0.8 at 30° C. with shaking.
Compound administration was performed in two separate steps. First, 15 μL of CSM-Galactose (induces expression of toxic protein) was dispensed into clear 384 well assay plates using a MULTIDROP™ Combi reagent dispenser. […] The cultures described above were then diluted to a 2× concentration (0.03 and 0.08 for alpha-synuclein and ApoE, final ODsoo of 0.015 and 0.04) in CSM-Galactose. For wild-type and Ole1/SCD1/SCD5 plasmid-containing strains, the 2× cell density was 0.02. […] For 96-well assays (FIGS. 1A and 1B), compound dilutions in DMSO were generated in 96 well plates and 1 μL was manually pipetted into 96 well clear bottom assay plates.
For experiments using a plasmid-borne copy of Ole1, SCD1, or SCD5 (FIGS. 3B, 6, and 7), media lacking uracil (SX-Ura, where X is glucose, raffinose, or galactose), was used for all steps of the compound profiling protocol to ensure its maintenance throughout the assay.
After yeast delivery, assay plates were incubated under humidified conditions at 30° C. for 24 to 40 h. ApoE4 rescue experiments were stopped at 24 h, aSyn experiments at 40 h, Ole1 at 24 h, and SCD1/SCD5 at 40 h. The growth of yeast was monitored by reading the ODsoo of each well using a microplate reader (Perkin Elmer EnVision™).

Structure (SMILES)	IC50 [µM]
CC(C)n1ncc2ccc(-c3noc(N4CCN(C(=O)CC5(C)CC5)CC4)n3)cc21 [Compound 495]	1.92
CC(C)n1ncc2ccc(-c3noc(N4C[C@H]5CN(C(=O)CC(C)(C)C)C[C@H]5C4)n3)cc21 [Compound 497]	11.3
CC(C)n1ncc2ccc(-c3noc([C@@H]4[C@@H]5CN(C(=O)OC(C)(C)C)C[C@@H]54)n3)cc21 [Compound 498]	> 45
CC(C)n1ncc2ccc(-c3nc(C4CCN(C(=O)c5ccccn5)CC4)no3)cc21 [Compound 499]	1.1
Cc1nn(C)c2cc(-c3noc(C4CCN(C(=O)CC5CN(C(=O)OC(C)(C)C)C5)CC4)n3)ccc12 [Compound 502]	38.9
Cc1nn(C)c2cc(-c3nsc(C4CCN(C(=O)OC(C)(C)C)CC4)n3)ccc12 [Compound 503]	0.316
CC(C)n1ncc2ccc(-c3nc(C4CCN(C(=O)c5ccc(Cl)cc5)CC4)no3)cc21 [Compound 505]	0.669
CC(C)n1ncc2ccc(-c3nc(C4CCN(C(=O)c5cccc(F)c5)CC4)no3)cc21 [Compound 506]	0.81
CC(C)OC(=O)N1CCC(c2nc(-c3ccc4oc(=O)n(C(C)C)c4c3)no2)CC1 [Compound 507]	2.44
CC(C)n1ncc2ccc(-c3noc(C4=C(F)CN(C(=O)OC(C)(C)C)CC4)n3)cc21 [Compound 510]	4.16
CC(C)n1ncc2ccc(-c3noc(C4CCN(C(=O)[C@@H]5CC(=O)N(c6cccc(C#N)c6)C5)CC4)n3)cc21 [Compound 528]	> 45
CC(C)n1ncc2ccc(-c3noc(C4CCN(C(=O)[C@H]5CC(=O)N(c6cccc(C#N)c6)C5)CC4)n3)cc21 [Compound 529]	> 45
CC(C)n1ncc2ccc(-c3noc(N4C[C@@H]5CNC[C@H]5C4)n3)cc21 [Compound 530]	> 45
CC(C)n1ncc2ccc(-c3noc(C4CCN(C(=O)c5ccccc5F)CC4)n3)cc21 [Compound 532]	2.15
CC(C)n1ncc2ccc(-c3noc(C4CCN(C(=O)c5ccc(Cl)cc5F)CC4)n3)cc21 [Compound 533]	3.33
CC(C)n1ncc2ccc(N3CC4(CCN(C(=O)c5ccccc5Cl)CC4)C3)cc21 [Compound 534]	36.8
CC(=O)N[C@H]1CC[C@H](c2nc(-c3ccc4cnn(C(C)C)c4c3)no2)CC1 [Compound 535]	> 45
CC(C)n1ncc2ccc(-c3noc([C@H]4CC[C@@H](N)CC4)n3)cc21 [Compound 536]	> 45
CC(C)n1ncc2ccc(-c3noc([C@H]4CC[C@H](NC(=O)OC(C)(C)C)CC4)n3)cc21 [Compound 537]	> 45
CC(C)n1ncc2ccc(N3CC4(CCNCC4)C3)cc21 [Compound 538]	> 45
COc1ccc(S(=O)(=O)N2CCC(c3nc(-c4ccc5cnn(C(C)C)c5c4)no3)CC2)c(Br)c1 [Compound 539]	> 45
CC(C)n1ncc2ccc(-c3noc(C4CCN(S(=O)(=O)c5ccccc5Cl)CC4)n3)cc21 [Compound 540]	> 45
CC(C)n1ncc2ccc(-c3noc(C4CCN(C(=O)c5ccc(Cl)c(F)c5)CC4)n3)cc21 [Compound 541]	> 45
CC(C)n1ncc2ccc(-c3noc(C4CCN(C(=O)c5ccc(F)cc5)CC4)n3)cc21 [Compound 544]	10
Cn1ncc2ccc(-c3noc(N4CCN(C(=O)OC(C)(C)C)CC4)n3)cc21 [Compound 545]	18.9
CC(C)n1ncc2ccc(-c3nc(C4CCN(C(=O)CC5(C)CC5)CC4)no3)cc21 [Compound 546]	0.019
CC(C)n1ncc2ccc(-c3nc(N4CCN(C(=O)OC(C)(C)C)CC4)no3)cc21 [Compound 548]	0.01
CC(C)n1ncc2ccc(-c3noc(C4CCN(C(=O)c5nccs5)CC4)n3)cc21 [Compound 549]	1.21

Structure (SMILES)	IC50 [µM]
COC(=O)N[C@H]1CC[C@@H](c2nc(-c3ccc4c(C)nn(C)c4c3)no2)CC1 [Compound 550]	> 45
CC(C)n1ncc2ccc(-c3noc(N4CC5(CCN(C(=O)OC(C)(C)C)CC5)C4)n3)cc21 [Compound 555]	> 45
CC(C)n1ncc2ccc(-c3noc(C4CCN(C(=O)CNC(=O)c5cccc(C#N)c5)CC4)n3)cc21 [Compound 556]	> 45
O=C(CC1CC1)N1CCC(c2nc(-c3ccc4cnn(C5COC5)c4c3)no2)CC1 [Compound 558]	1.07
CC1(CC(=O)N2CCC(c3nc(-c4ccc5cnn(C6COC6)c5c4)no3)CC2)CC1 [Compound 559]	1.19
CCc1cnc(N2CCC(c3nc(-c4ccc5c(C)nn(C)c5c4)no3)CC2)cn1 [Compound 560]	> 45
COC(=O)N1CCC(c2nc(-c3ccc4cnn(C(F)F)c4c3)no2)CC1 [Compound 561]	29.4
O=C(c1ccccc1Cl)N1CCC(c2nc(-c3ccc4cnn(C5COC5)c4c3)no2)CC1 [Compound 562]	1.5
O=C(c1ccccc1)N1CCC(c2nc(-c3ccc4cnn(C5COC5)c4c3)no2)CC1 [Compound 564]	4.23
CC(C)CS(=O)(=O)N1CCC(c2nc(-c3ccc4cnn(C(C)C)c4c3)no2)CC1 [Compound 565]	> 45
COC(=O)N1C[C@H]2CN(c3nc(-c4ccc5cnn(C(C)C)c5c4)no3)C[C@@H]2C1 [Compound 568]	> 45
CC(C)n1ncc2ccc(-c3noc(N4C[C@@H]5CN(C(=O)CC(C)(C)C)C[C@H]5C4)n3)cc21 [Compound 569]	> 45
COC(=O)N1CCC2(CC1)CN(c1nc(-c3ccc4cnn(C(C)C)c4c3)no1)C2 [Compound 570]	26.3
CC(=O)N1CCC2(CC1)CN(c1nc(-c3ccc4cnn(C(C)C)c4c3)no1)C2 [Compound 571]	> 45
CC(C)N1C(=O)CCc2ccc(-c3noc(C4CCN(C(=O)OC(C)(C)C)CC4)n3)cc21 [Compound 572]	15
CC(C)n1ncc2ccc(-c3noc(C4CCN(C(=O)c5cscn5)CC4)n3)cc21 [Compound 573]	5.6
CC(C)n1ncc2ccc(-c3noc(C4CCN(C(=O)c5cccs5)CC4)n3)cc21 [Compound 574]	2.28
CC(C)n1ncc2ccc(-c3noc(C4CCN(C(=O)c5ccsc5Cl)CC4)n3)cc21 [Compound 575]	4.68
CC1(OC(=O)N2CCC(c3nc(-c4ccc5cnn(C6COC6)c5c4)no3)CC2)CC1 [Compound 576]	0.028
Cc1nn(C)c2cc(-c3noc([C@@H]4CCN(C(=O)CNC(=O)c5ccccc5)CC4(F)F)n3)ccc12 [Compound 577]	> 45
Cc1nn(C)c2cc(-c3noc(C4CCN(c5nc(C(C)C)no5)CC4)n3)ccc12 [Compound 581]	> 45
CC(C)n1ncc2ccc(-c3nc(N4CCN(C(=O)c5ccccc5)CC4)no3)cc21 [Compound 582]	0.176
CC(C)n1ncc2ccc(-c3noc(C4CCN(C(=O)c5ccc(Cl)cn5)CC4)n3)cc21 [Compound 586]	3.77
CC(C)n1ncc2ccc(-c3noc(C4CCN(C(=O)c5ncccc5Cl)CC4)n3)cc21 [Compound 587]	4.92
CC(C)n1ncc2ccc(-c3noc(C4CCN(C(=O)c5ccsn5)CC4)n3)cc21 [Compound 588]	1.86
CC(C)n1ncc2ccc(-c3noc(C4CCN(C(=O)c5ncc(Cl)s5)CC4)n3)cc21 [Compound 589]	0.356
Cc1noc2cc(-c3noc(C4CCN(C(=O)OC5(C)CC5)CC4)n3)ccc12 [Compound 590]	> 45
